The record followed here is article doi:10.1101/2025.11.23.690065v1 (biorxiv, 2025).

Experiment [1] has as its target T1, TREM1 (Homo sapiens, UniProt Q9NP99). Briefly: single-dose TRIC/MST screen. The experiment is classed as binding. The note with it: PBS pH 7.4, 0.05% Tween-20; bound from single-dose screen at 300 µM.
Experiment [2] concerns the target T2, His-TREM2 (TREM2) (Homo sapiens, UniProt Q9NZC2).
T2 sequence (Q9NZC2 19-174 limits assumed): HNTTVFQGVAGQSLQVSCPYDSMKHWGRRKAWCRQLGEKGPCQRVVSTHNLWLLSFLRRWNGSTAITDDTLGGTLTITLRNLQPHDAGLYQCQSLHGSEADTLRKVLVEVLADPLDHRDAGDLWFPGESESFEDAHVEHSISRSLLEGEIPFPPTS
Briefly: MST. The experiment is classed as binding.

In experiment [3] the target is T3, LAG-3 (Homo sapiens, UniProt P18627).
T3 sequence (P18627 23-525): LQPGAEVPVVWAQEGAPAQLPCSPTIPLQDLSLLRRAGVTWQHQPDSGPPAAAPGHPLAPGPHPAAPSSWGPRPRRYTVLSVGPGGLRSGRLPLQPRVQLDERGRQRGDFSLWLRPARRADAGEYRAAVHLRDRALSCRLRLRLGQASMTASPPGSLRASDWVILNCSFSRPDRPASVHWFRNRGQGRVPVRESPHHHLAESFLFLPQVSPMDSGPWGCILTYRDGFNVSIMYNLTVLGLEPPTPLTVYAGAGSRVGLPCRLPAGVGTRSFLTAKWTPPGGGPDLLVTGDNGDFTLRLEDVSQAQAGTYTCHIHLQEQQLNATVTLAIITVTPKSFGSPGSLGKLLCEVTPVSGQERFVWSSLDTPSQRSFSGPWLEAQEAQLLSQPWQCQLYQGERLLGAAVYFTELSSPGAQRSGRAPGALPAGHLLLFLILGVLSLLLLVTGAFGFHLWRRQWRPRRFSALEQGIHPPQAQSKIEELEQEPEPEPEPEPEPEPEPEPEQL
Nature of the experiment: single-dose TRIC screen. The experiment is classed as binding. The conditions noted are these: 2% DMSO; bound from single-dose screen at 300 µM.

The target of experiment [4] is T3, LAG-3. Nature of the experiment: MST. The experiment is classed as binding.
The target in experiment [5] is T1, TREM1. Briefly: MST. The experiment is classed as binding.
Experiment [6] deals with T2, His-TREM2 (TREM2). Nature of the experiment: biochemical.
In experiment [7] the target is T2, His-TREM2 (TREM2). Briefly: nanoDSF thermal shift. The experiment is classed as binding. The conditions noted are these: read-out: ΔTm at 100 μM.
The target in experiment [8] is T2, His-TREM2 (TREM2). Nature of the experiment: nanoDSF thermal shift, dose-response. The experiment is classed as binding. (Differential scanning fluorimetry follows unfolding on heating by fluorescence.)

Molecules are shown by their SMILES.

T1 sequence (Q9NP99 21-205 limits assumed): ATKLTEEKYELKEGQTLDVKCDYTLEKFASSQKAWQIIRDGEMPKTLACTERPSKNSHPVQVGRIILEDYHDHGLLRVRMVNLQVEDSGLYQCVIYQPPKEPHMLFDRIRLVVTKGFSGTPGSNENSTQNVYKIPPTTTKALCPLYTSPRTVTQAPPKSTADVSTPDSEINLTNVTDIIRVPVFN

Turning to `NC(=O)C1CCN(C(=O)c2cccn(Cc3ccccc3)c2=O)CC1` [2M06-1], the KD in experiment [1] and in experiment [3] was over 300 µM in each case. In experiment [2], the Kd (in general, the free concentration of one partner at which half of the binding sites on the other are occupied at equilibrium, for simple one-to-one binding) worked out at 124 ± 36 µM.

Turning to `Cn1cc(C(=O)N2C(C(=O)O)CC3CCCCC32)ccc1=O` (stereo not drawn) [2M06-6], the KD in experiment [1] and in experiment [3] was over 300 µM throughout. For the same compound, in experiment [2], the dissociation constant (Kd) was over 300 µM.

In the case of `Cc1cccc(Cn2cccc(C(=O)NC3CCCCCC3)c2=O)c1` [2M06-8], the KD in experiment [1] and in experiment [3] was over 300 µM in each case. For the same compound, the dissociation constant (Kd) in experiment [2] is over 300 µM.

Take `Cc1cccc(Cn2cccc(C(=O)N3C(C(=O)O)CC4CCCCC43)c2=O)c1` (stereo not drawn) [2M06]: the KD in experiment [1] and in experiment [3] was over 300 µM each time. Binding in experiment [2] was characterised by a dissociation constant (Kd) of 26.1 ± 5.1 µM.

Regarding `O=C1CCCN1c1ccc2c(c1)CCN2` [6B10-1], the Kd amounted to 19.5 ± 6.8 µM in experiment [2], 59.4 ± 14.1 µM in experiment [4] and 121 ± 3.4 µM in experiment [5].

For `CC(C)(C)CC(=O)Nc1ccc2c(c1)CCN2` [6B10-2], the equilibrium dissociation constant (KD) in experiment [1] and in experiment [3] was over 300 µM in each case. This compound also displayed a Kd in experiment [2] of over 300 µM.

With `COC1(CC(=O)Nc2ccc3c(c2)CCN3)CCC1` [6B10-3], the KD in experiment [1] and in experiment [3] was over 300 µM each time. The compound further displayed a Kd in experiment [2] of over 300 µM.

On to `CC1(C(=O)Nc2ccc3c(c2)CCN3C(=O)c2ccoc2)CCCC1` [6B10-8], for which the KD in experiment [1] and in experiment [3] was over 300 µM throughout. In addition, the Kd in experiment [6] worked out at 136 ± 14 µM; in experiment [2], 127 ± 16 µM.

Take `O=C(Nc1ccc2c(c1)CCN2C(=O)c1ccoc1)C1CC2C=CC1C2` (stereo not drawn) [6B10-9]: the KD in experiment [1] and in experiment [3] was over 300 µM in each case. In addition, in experiment [7], the ΔTm (commonly the change in melting temperature against a reference sample) at 100 µM was over 2 °C. Binding in experiment [2] was characterised by a dissociation constant (Kd) of 68.3 ± 2.8 µM. Besides, the EC50 (in general, the concentration giving half of the maximal effect) in experiment [8] is 62 µM.

On to `CC(=O)N1CCc2cc(NC(=O)C3(C#N)CCCC3)ccc21` [6B10-13], for which the KD in experiment [1] and in experiment [3] was over 300 µM in each case. Besides, the Kd in experiment [2] was over 300 µM.

Regarding `O=C(Nc1ccc2c(c1)CCN2)C1CCCC1` [6B10], the Kd came to 37.6 ± 15.8 µM in experiment [2] and 66.9 ± 28.6 µM in experiment [5]. The KD (as a rule, the equilibrium constant for the complex coming apart) in experiment [3] was over 300 µM.

Turning to `O=C(O)C1CC2CCCCC2N1Cc1cc(=O)n2ccccc2n1` (stereo not drawn) [7G19-5], the results for the Kd in experiment [2] and in experiment [5] were 4.5 ± 0.9 µM and 56.6 ± 8.6 µM, respectively. The same compound had a KD in experiment [3] of over 300 µM.

On to `Cc1cccn2c(=O)cc(CN3C(C(=O)O)CC4CCCCC43)nc12` (stereo not drawn) [7G19], for which the Kd in experiment [2] came to 3.8 ± 0.3 µM; in experiment [4] it was 61.9 ± 23.2 µM; in experiment [5], 46.5 ± 38.1 µM.
